Here are results for one molecule from patent publication US20160166540A1, “MODULATORS FOR ATP-BINDING CASSETTE TRANSPORTERS” (VERTEX PHARMACEUTICALS INCORPORATED, priority 2011, published 2016).

The test has as its target T1, ΔF508-CFTR (Homo sapiens, UniProt P13569, DEL508-508).
T1 construct: expressed in transfected cells
In words: Membrane potential optical assay for ΔF508-CFTR correction (identification of correction compounds). It is filed as cell-based. The following applies: NIH3T3; NIH 3T3 cells stably expressing ΔF508-CFTR; read-out: % Efficacy. From the text:
Assays for Detecting and Measuring M508-CFTR Correction Properties of Compounds
Membrane potential optical methods for assaying ΔF508-CFTR modulation properties of compounds.
The assay utilizes fluorescent voltage sensing dyes to measure changes in membrane potential using a fluorescent plate reader (e.g., FLIPR III, Molecular Devices, Inc.) as a readout for increase in functional ΔF508-CFTR in NIH 3T3 cells. The driving force for the response is the creation of a chloride ion gradient in conjunction with channel activation by a single liquid addition step after the cells have previously been treated with compounds and subsequently loaded with a voltage sensing dye.
To identify small molecules that correct the trafficking defect associated with ˜F508-CFTR; a single-addition HTS assay format was developed. Assay Plates containing cells are incubated for ˜2-4 hours in tissue culture incubator at 37° C., S % CO2, 90% humidity. Cells are then ready for compound exposure after adhering to the bottom of the assay plates.
The cells were incubated in serum-free medium for 16-24 hrs in tissue culture incubator at 37° C., S % CO2, 90% humidity in the presence or absence (negative control) of test compound. […] The addition of Cl^−-free medium promoted Cl^− efflux in response to ΔF508-CFTR activation and the resulting membrane depolarization was optically monitored using voltage sensor dyes. […]

T1 sequence (P13569 with tags, fused parts or gaps DEL508-508): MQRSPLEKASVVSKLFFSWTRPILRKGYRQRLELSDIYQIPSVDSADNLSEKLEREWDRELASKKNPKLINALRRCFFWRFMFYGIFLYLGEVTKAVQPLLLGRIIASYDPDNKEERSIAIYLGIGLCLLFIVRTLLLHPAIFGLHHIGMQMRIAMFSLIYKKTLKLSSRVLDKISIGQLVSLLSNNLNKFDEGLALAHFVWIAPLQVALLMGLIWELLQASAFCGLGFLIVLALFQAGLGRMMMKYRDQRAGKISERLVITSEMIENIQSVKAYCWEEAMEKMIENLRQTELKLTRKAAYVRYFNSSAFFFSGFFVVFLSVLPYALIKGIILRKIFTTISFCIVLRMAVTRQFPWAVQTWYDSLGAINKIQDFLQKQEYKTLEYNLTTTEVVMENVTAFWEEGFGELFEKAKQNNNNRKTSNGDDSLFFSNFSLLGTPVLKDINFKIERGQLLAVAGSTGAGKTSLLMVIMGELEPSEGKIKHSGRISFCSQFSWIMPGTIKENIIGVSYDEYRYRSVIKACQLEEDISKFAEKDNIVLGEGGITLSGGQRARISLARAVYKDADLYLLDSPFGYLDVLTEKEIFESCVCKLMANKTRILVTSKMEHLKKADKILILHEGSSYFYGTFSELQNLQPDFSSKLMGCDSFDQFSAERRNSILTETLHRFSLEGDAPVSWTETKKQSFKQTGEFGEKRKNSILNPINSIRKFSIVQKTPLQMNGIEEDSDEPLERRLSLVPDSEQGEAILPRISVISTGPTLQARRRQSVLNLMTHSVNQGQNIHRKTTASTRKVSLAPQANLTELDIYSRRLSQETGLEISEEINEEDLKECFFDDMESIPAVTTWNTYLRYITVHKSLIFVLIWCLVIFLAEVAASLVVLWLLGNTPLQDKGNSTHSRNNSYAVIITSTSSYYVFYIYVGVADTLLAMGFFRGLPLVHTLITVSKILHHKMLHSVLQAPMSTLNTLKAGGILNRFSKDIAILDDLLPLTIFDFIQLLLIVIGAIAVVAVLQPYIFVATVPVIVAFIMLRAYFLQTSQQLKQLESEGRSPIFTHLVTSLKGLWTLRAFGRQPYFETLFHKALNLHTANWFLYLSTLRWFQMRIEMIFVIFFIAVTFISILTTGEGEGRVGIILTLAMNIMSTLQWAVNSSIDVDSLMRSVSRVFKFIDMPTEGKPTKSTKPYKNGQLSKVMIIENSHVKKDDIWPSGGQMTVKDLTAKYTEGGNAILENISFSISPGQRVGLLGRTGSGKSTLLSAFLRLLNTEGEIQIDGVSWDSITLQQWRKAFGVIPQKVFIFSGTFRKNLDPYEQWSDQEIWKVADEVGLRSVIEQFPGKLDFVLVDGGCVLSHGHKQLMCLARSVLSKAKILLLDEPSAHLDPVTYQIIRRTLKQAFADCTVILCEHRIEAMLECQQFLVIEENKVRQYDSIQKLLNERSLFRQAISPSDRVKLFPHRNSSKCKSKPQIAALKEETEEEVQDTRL

As to `CC1(C)c2cc3cc(NC(=O)C4(c5ccc6c(c5)OC(F)(F)O6)CC4)c(F)cc3n2C[C@H](CO)OC1O` (stereo partly drawn) [1-(2,2-difluorobenzo[d][1,3]dioxol-5-yl)-N-((4R)-8-fluoro-2-hydroxy-4-(hydroxymethyl)-1,1-dimethyl-1,2,4,5-tetrahydro-[1,4]oxazepino[4,5-a]indol-9-yl)cyclopropanecarboxamide], the Emax is over 100%.
